According to patent publication US20170001990A1 (Genentech, Inc., priority 2014, published 2017):

Target: Human recombinant carboxy-terminal his-tagged LDHA (amino acids 2-332) (Homo sapiens, UniProt P00338)
Assay: LDHA enzyme inhibition assay (NADH fluorescence)
Conditions: LDHA IC50 (μM), 1 nM LDHA, NADH and pyruvate, stereochemistry of tested sample given

Compound | IC50
O=C1C[C@@](c2ccsc2)(c2ccc(N3CCOCC3)c(F)c2)NC(=O)C1Sc1ccccc1Cl (mixture of isomers) [Example 316, (6S)-3-(2-chlorophenyl) sulfanyl-6-(3-fluoro-4-morpholine-phenyl)-6-(3-thienyl)piperidine-2,4-dione] | 0.044 µM
O=C1C[C@](c2ccsc2)(c2cccc(Oc3ccc(F)nc3Cl)n2)NC(=O)C1Sc1ccccc1Cl (mixture of isomers) [Example 325, (6S)-6-[6-[(2-chloro-6-fluoro-3-pyridyl)oxy]-2-pyridyl]-3-(2-chlorophenyl) sulfanyl-6-(3-thienyl) piperidine-2,4-dione] | 0.162 µM
C[C@@H](Nc1cccc(C2(c3ccsc3)CC(=O)C(Sc3ccccc3Cl)C(=O)N2)n1)c1ccc(F)cc1 (mixture of isomers) [Example 302, 3-((2-chlorophenyl)thio)-6-(6-((1-(4-fluorophenyl)ethyl)amino)pyridin-2-yl)-6-(thiophen-3-yl) piperidine-2,4-dione] | 0.03 µM
O=C1CC(c2ccsc2)(c2cccc(Oc3cccc(F)c3)n2)NC(=O)C1Sc1ccccc1Cl (single isomer, unassigned) [Example 47, 3-(2-chlorophenyl) sulfanyl-6-[6-(3-fluorophenoxy)-2-pyridyl]-6-(3-thienyl)piperidine-2,4-dione] | 0.12 µM
O=C1CC(c2ccsc2)(c2cccc(Oc3ccc(F)c(F)c3)n2)NC(=O)C1Sc1ccccc1Cl (single isomer, unassigned) [Example 57, 3-(2-chlorophenyl)sulfanyl-6-[6-(3,4-difluoro-phenoxy)-2-pyridyl]-6-(3-thienyl)piperidine-2,4-dione] | 0.086 µM
O=C1CC(c2ccsc2)(c2cccc(Oc3cncc(F)c3)n2)NC(=O)C1Sc1ccccc1Cl (single isomer, unassigned) [Example 65, 3-(2-chlorophenyl)sulfanyl-6-[6-[(5-fluoro-3-pyridyl)oxy]-2-pyridyl]-6-(3-thienyl)piperidine-2,4-dione] | 0.056 µM
O=C1CC(c2ccsc2)(c2cccc(Oc3ccc(F)c(F)c3)n2)NC(=O)C1Sc1ccccc1Cl (single isomer, unassigned) [Example 77, 3-(2-chlorophenyl)sulfanyl-6-[6-(3,4-difluoro-phenoxy)-2-pyridyl]-6-(3-thienyl)piperidine-2,4-dione] | 0.031 µM
O=C1CC(c2ccsc2)(c2cccc(Oc3ccc(F)c(F)c3)n2)NC(=O)C1Sc1ccccc1Cl (single isomer, unassigned) [Example 78, 3-(2-chlorophenyl)sulfanyl-6-[6-(3,4-difluoro-phenoxy)-2-pyridyl]-6-(3-thienyl)piperidine-2,4-dione] | 0.023 µM
O=C1CC(c2ccsc2)(c2cccc(Oc3cccc(F)c3)n2)NC(=O)C1Sc1ccccc1Cl (single isomer, unassigned) [Example 79, 3-(2-chlorophenyl)sulfanyl-6-[6-(3-fluorophenoxy)-2-pyridyl]-6-(3-thienyl) piperidine-2,4-dione] | 0.199 µM
O=C1CC(c2ccsc2)(c2cccc(OCC(F)(F)F)n2)NC(=O)C1Sc1ccccc1Cl (single isomer, unassigned) [Example 82, 3-(2-chlorophenyl)sulfanyl-6-(3-thienyl)-6-[6-(2,2,2-trifluoroethoxy)-2-pyridyl]piperidine-2,4-dione] | 0.049 µM
O=C1CC(c2ccsc2)(c2cccc(Oc3ccc(F)c(Cl)c3)n2)NC(=O)C1Sc1ccccc1Cl (single isomer, unassigned) [Example 83, 6-(6-(3-chloro-4-fluoro-phenoxy)pyridin-2-yl)-3-((2-chlorophenyl)thio)-6-(thiophen-3-yl) piperidine-2,4-dione] | 0.013 µM
O=C1CC(c2ccsc2)(c2cccc(OCC3CC3)n2)NC(=O)C1Sc1ccccc1Cl (single isomer, unassigned) [Example 84, 3-(2-chlorophenyl)sulfanyl-6-[6-(cyclopropyl-methoxy)-2-pyridyl]-6-(3-thienyl)piperidine-2,4-dione] | 0.008 µM
O=C1CC(c2ccsc2)(c2cccc(OCC(F)(F)F)n2)NC(=O)C1Sc1ccccc1Cl (single isomer, unassigned) [Example 86, 3-(2-chlorophenyl)sulfanyl-6-(3-thienyl)-6-[6-(2,2,2-trifluoroethoxy)-2-pyridyl]piperidine-2,4-dione] | 0.022 µM
O=C1CC(c2ccsc2)(c2cccc(OCC(F)(F)F)n2)NC(=O)C1Sc1ccccc1Cl (single isomer, unassigned) [Example 87, 3-(2-chlorophenyl)sulfanyl-6-(3-thienyl)-6-[6-(2,2,2-trifluoroethoxy)-2-pyridyl]piperidine-2,4-dione] | 0.01 µM
O=C1CC(c2ccsc2)(c2cccc(Oc3cccc4ncccc34)n2)NC(=O)C1Sc1ccccc1Cl (single isomer, unassigned) [Example 91, 5-((2-chlorophenyl)thio)-4-hydroxy-6′-(quinolin-5-yloxy)-2-(thiophen-3-yl)-2,3-dihydro-[2,2′-bipyridin]-6(1H)-one] | 0.011 µM
O=C1CC(c2ccsc2)(c2cccc(OCC3CC3)n2)NC(=O)C1Sc1ccccc1Cl (single isomer, unassigned) [Example 93, 3-(2-chlorophenyl)sulfanyl-6-[6-(cyclopropyl-methoxy)-2-pyridyl]-6-(3-thienyl)piperidine-2,4-dione] | 0.319 µM
O=C1CC(c2ccsc2)(c2cccc(OCC3CC3)n2)NC(=O)C1Sc1ccccc1Cl (single isomer, unassigned) [Example 97, 3-(2-chlorophenyl)sulfanyl-6-[6-(cyclopropyl-methoxy)-2-pyridyl]-6-(3-thienyl)piperidine-2,4-dione] | 0.03 µM
O=C1CC(c2ccsc2)(c2cccc(OC3CCC(O)C3)n2)NC(=O)C1Sc1ccccc1Cl (single isomer, unassigned) [Example 104, 3-((2-chlorophenyl)thio)-6-(6-((3-hydroxycyclo-pentyl)oxy)pyridin-2-yl)-6-(thiophen-3-yl) piperidine-2,4-dione] | 0.118 µM
O=C1CC(c2ccsc2)(c2cccc(OC3CCC(O)C3)n2)NC(=O)C1Sc1ccccc1Cl (single isomer, unassigned) [Example 106, 3-((2-chlorophenyl)thio)-6-(6-((3-hydroxy-cyclopentyl)oxy)pyridin-2-yl)-6-(thiophen-3-yl)piperidin-2,4-dione] | 0.732 µM
O=C1CC(c2ccsc2)(c2cccc(Oc3ccc(F)c(Cl)c3)n2)NC(=O)C1Sc1ccccc1Cl (single isomer, unassigned) [Example 108, 6-(6-(3-chloro-4-fluoro-phenoxy)pyridin-2-yl)-3-((2-chlorophenyl)thio)-6-(thiophen-3-yl) piperidine-2,4-dione] | 0.108 µM
O=C1CC(c2ccsc2)(c2cccc(NCCC3CC3)n2)NC(=O)C1Sc1ccccc1Cl (single isomer, unassigned) [Example 110, 3-(2-chlorophenyl)sulfanyl-6-[6-(2-cyclopropylethyl-amino)-2-pyridyl]-6-(3-thienyl)piperidine-2,4-dione] | 0.018 µM
O=C1CC(c2ccsc2)(c2cccc(Oc3ccc(F)c(Cl)c3)n2)NC(=O)C1Sc1ccccc1Cl (single isomer, unassigned) [Example 112, 6-(6-(3-chloro-4-fluoro-phenoxy)pyridin-2-yl)-3-((2-chlorophenyl)thio)-6-(thiophen-3-yl) piperidine-2,4-dione] | 0.01 µM
O=C1CC(c2ccsc2)(c2cccc(OCCC3CCCC3)n2)NC(=O)C1Sc1ccccc1Cl (single isomer, unassigned) [Example 113, 3-((2-chlorophenyl)thio)-6-(6-(2-cyclopentyl-ethoxy)pyridin-2-yl)-6-(thiophen-3-yl)piperidine-2,4-dione] | 0.014 µM
CC(C)(O)CCCOc1cccc(C2(c3ccsc3)CC(=O)C(Sc3ccccc3Cl)C(=O)N2)n1 (single isomer, unassigned) [Example 114, 3-((2-chlorophenyl)thio)-6-(6-((4-hydroxy-4-methyl-pentyl)oxy)pyridin-2-yl)-6-(thiophen-3-yl) piperidine-2,4-dione] | 0.053 µM
O=C1CC(c2ccsc2)(c2cccc(Oc3cccc(C(F)F)c3)n2)NC(=O)C1Sc1ccccc1Cl (single isomer, unassigned) [Example 115, 3-(2-chlorophenyl)sulfanyl-6-[6-[3-(difluoromethyl)phenoxy]-2-pyridyl]-6-(3-thienyl)piperidine-2,4-dione] | 0.031 µM
O=C1CC(c2ccsc2)(c2cccc(Oc3ccccc3Br)n2)NC(=O)C1Sc1ccccc1Cl (single isomer, unassigned) [Example 116, 6-[6-(2-bromophenoxy)-2-pyridyl]-3-(2-chlorophenyl) sulfanyl-6-(3-thienyl) piperidine-2,4-dione] | 0.376 µM
O=C1CC(c2ccsc2)(c2cccc(Oc3ccc4ncccc4c3)n2)NC(=O)C1Sc1ccccc1Cl (single isomer, unassigned) [Example 117, 3-(2-chlorophenyl)sulfanyl-6-[6-(6-quinolyloxy)-2-pyridyl]-6-(3-thienyl) piperidine-2,4-dione] | 0.076 µM
O=C1CC(c2ccsc2)(c2cccc(Cc3ccccc3)n2)NC(=O)C1Sc1ccccc1Cl (single isomer, unassigned) [Example 118, 6-(6-benzylpyridin-2-yl)-3-((2-chloropnenyl)thio)-6-(thiophen-3-yl) piperidine-2,4-dione] | 0.622 µM
CC(C)CCOc1cccc(C2(c3ccsc3)CC(=O)C(Sc3ccccc3Cl)C(=O)N2)n1 (single isomer, unassigned) [Example 119, 3-(2-chlorophenyl)sulfanyl-6-(6-isopentyloxy-2-pyridyl)-6-(3-thienyl) piperidine-2,4-dione] | 0.293 µM
O=C1CC(c2ccsc2)(c2cccc(Oc3ccc4ncccc4c3)n2)NC(=O)C1Sc1ccccc1Cl (single isomer, unassigned) [Example 120, 3-(2-chlorophenyl)sulfanyl-6-[6-(6-quinolyloxy)-2-pyridyl]-6-(3-thienyl) piperidine-2,4-dione] | 0.016 µM
